This test has as its target AMPA ((RS)-α-amino-3-hydroxy-5-methyl-4-isoxazolepropionic acid) binding site. Description: AMPA binding assay (T. Honoré et al., Neuroscience Letters 54, 27-32 (1985)). The following applies: AMPA binding assay as described by T. Honoré et al.; read-out: IC₅₀. On the procedure:
In the same assay 8-Methyl-5,7,8,9-tetrahydro-1H-pyrrolo[3,2-h]isoquinoline-2,3-dione-3-oxime has an IC₅₀ of 0.2 µM.

Data on two compounds can be found in EP0633262A1, “Novel isatineoxime derivatives, their preparation and use” (NEUROSEARCH A/S, priority 1993, dated 1995).

SMILES strings stand for the structures.

As for `CN1CC=C2C(=C3NC(=O)C(=NO)C3=CC2S(=O)(=O)N(C)C)C1` (centres unmarked) [Example 6, 5-dimethylsulfamoyl-8-Methyl-5,7,8,9-tetrahydro-1H-pyrrolo[3,2-h]isoquinoline-2,3-dione-3-oxime], the IC50 amounted to 400 nM.

`CN1CC=C2CC=C3C(=NO)C(=O)NC3=C2C1` [Example 7, 8-Methyl-5,7,8,9-tetrahydro-1H-pyrrolo[3,2-h]isoquinoline-2,3-dione-3-oxime]: the IC50 was 200 nM.
